Laboratory results published in US20100010034A1, “CRTH2 ANTAGONISTS” (priority 2006, published 2010).

Tests used:
[1] = biological target: T1, CRTH2 receptor (Homo sapiens, UniProt Q9Y5Y4); test: CRTH2 Radioligand Binding assay ([3H]-PGD2 displacement, SPA); set-up: expressed in transfected cells; host or cells: HEK cell membranes; details: HEK cell membranes expressing the CRTH2 receptor, 1 nM [3H]-PGD2; Ki from IC50 by Cheng-Prusoff
T1 sequence (Q9Y5Y4 1-395): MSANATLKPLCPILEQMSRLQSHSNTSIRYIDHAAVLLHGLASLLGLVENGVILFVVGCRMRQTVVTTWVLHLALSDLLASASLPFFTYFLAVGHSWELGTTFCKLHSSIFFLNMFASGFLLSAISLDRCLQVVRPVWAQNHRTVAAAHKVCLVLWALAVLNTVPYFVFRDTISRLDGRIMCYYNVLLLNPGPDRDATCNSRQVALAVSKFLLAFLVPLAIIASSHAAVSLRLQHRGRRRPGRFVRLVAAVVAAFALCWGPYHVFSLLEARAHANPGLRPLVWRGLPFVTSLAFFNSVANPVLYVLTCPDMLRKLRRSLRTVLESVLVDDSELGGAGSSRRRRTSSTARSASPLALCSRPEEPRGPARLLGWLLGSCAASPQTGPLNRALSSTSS
Experimental: Radioligand Binding Assay
The receptor binding assay is performed in a final volume of 200 μL binding buffer [10 mM BES (pH 7.4), 1 mM EDTA, 10 mM manganese chloride, 0.01% BSA] and 1 nM [^3H]-PGD2 (Amersham Biosciences UK Ltd). Ligands are added in assay buffer containing a constant amount of DMSO (1% by volume). Total binding is determined using 1% by volume of DMSO in assay buffer and non-specific binding is determined using 10 μM of unlabeled PGD2 (Sigma). Human embryonic kidney (HEK) cell membranes (3.5 μg) expressing the CRTH2 receptor are incubated with 1.5 mg wheatgerm agglutinin SPA beads and 1 nM [^3H]-PGD2 (Amersham Biosciences UK Ltd) and the mixture incubated for 3 hours at room temperature. Bound [^3H]-PGD2 is detected using a Microbeta TRILUX liquid scintillation counter (Perkin Elmer). Compound IC50 value is determined using a 6-point dose response curve in duplicate with a semi-log compound dilution series. IC50 calculations are performed using Excel and XLfit (Microsoft), and this value is used to determine a Ki value for the test compound using the Cheng-Prusoff equation.

[2] = biological target: T1, CRTH2 receptor; test: Calcium mobilisation (flux) functional assay; assay type: cell-based; set-up: expressed in transfected cells; details: CHO-K1 cells co-expressing CRTH2 receptor and Gα16; PGD2 agonist at EC80
Experimental: Calcium Mobilisation (Flux) Assay
Stable CHO-K1 cells co-expressing the CRTH2 receptor and the G-protein Gα16 are seeded (40,000 cells per well in a plating volume of 75 μL in F-12 Hams supplemented with 1% foetal bovine serum) into collagen-coated 96-well plates 24 hours prior to the assay. The cells are then loaded with a fluorescence-imaging plate reader (FLIPR) calcium kit dye (Calcium 3 kit, Molecular Devices Ltd) containing 5 mM final concentration of probenecid and incubated at 37° C. for 1 hour in a 5 % CO2 atmosphere. The fluorescence emission caused by intracellular calcium mobilization elicited by the PGD2 at the CRTH2 receptor is determined with a FLEXstation benchtop scanning and integrated fluid transfer workstation (Molecular Devices Ltd). To detect antagonists and determine compound IC50, compounds are pre-incubated at varying concentrations with the loaded cells for 15 minutes at 37° C., 5 % CO2, prior to the addition of the agonist at its EC80 value. Compounds and agonist are added in Hanks balanced salt solution containing 20 mM HEPES and 0.1% BSA). The fractional response values for each well are calculated by subtracting the basal response from the peak response. Results are calculated as the mean of triplicate wells using Excel and XLfit (Microsoft).

[3] = rats, exogenously applied agonist (Shirashi et al 2005); cited from earlier work

Structure (SMILES) | Ki [1] [nM] | IC50 [2] [nM] | pulmonary eosinophilia [3]
Cc1c(CC(=O)O)c2ccc(F)cn2c1Sc1ccc(S(C)(=O)=O)cc1C(F)(F)F [Example 3, [6-fluoro-3-(4-methanesulfonyl-2-trifluoromethylphenylsulfanyl)-2-methylindolizin-1-yl]acetic acid] | 0.9 | 11 | –
CCS(=O)(=O)Nc1ccc(S(=O)(=O)c2c(C)c(CC(=O)O)c3ccc(F)cn23)cc1 [Example 7] | 47 | – | –
Cc1c([C@H](C)C(=O)O)c2ccc(F)cn2c1Sc1ccc(S(C)(=O)=O)cc1 [Example 6, (S)-2-[6-fluoro-3-(4-methanesulfonylphenylsulfanyl)-2-methylindolizin-1-yl]propionic acid] | 57 | – | –
Cc1c([C@@H](C)C(=O)O)c2ccc(F)cn2c1Sc1ccc(S(C)(=O)=O)cc1 [Example 4, (R)-2-[6-fluoro-3-(4-methanesulfonylphenylsulfanyl)-2-methylindolizin-1-yl]propionic acid] | 29 | – | –
Cc1c(CC(=O)O)c2ccc(F)cn2c1Sc1ccc(S(C)(=O)=O)cc1F [Example 2, [6-fluoro-3-(2-fluoro-4-methanesulfonylphenylsulfanyl)-2-methylindolizin-1-yl]acetic acid] | 0.2 | 6.6 | –
O=C(O)CCC/C=C\C[C@@H]1[C@@H](/C=C/[C@@H](O)COc2ccc(I)cc2)[C@H]2CC[C@@H]1O2 [I-BOP] | – | – | no effect
CCS(=O)(=O)c1ccc(Sc2c(C)c(CC(=O)O)c3ccc(F)cn23)cc1 [Example 5, [3-(4-ethanesulfonylphenylsulfanyl)+fluoro-2-methylindolizin-1-yl]acetic acid] | 0.8 | 8.9 | –
Cc1c(CC(=O)O)c2ccc(F)cn2c1Sc1ccc(Cl)cc1Cl [Example 1, [3-(2,4dichlorophenylsulfanyl)-6-fluoro-2-methylindolizin-1-yl]acetic acid] | 27 | – | –
O=C(O)CCCCCCC1C(=O)NC(=O)N1CCC(O)C1CCCCC1 (stereo not drawn) [BW 245C] | – | – | no effect

More lines, main results first:

Ki [1] [nM] | IC50 [2] [nM] | Structure (SMILES) | pulmonary eosinophilia [3]
44 | – | COc1ccc(Sc2c(C)c(CC(=O)O)c3ccc(F)cn23)cc1 [Example 13, [6-fluoro-3-(4-methoxyphenylsulfanyl)-2-methylindolizin-1-yl]acetic acid] | –
0.4 | – | Cc1c(CC(=O)O)c2cc(Cl)c(F)cn2c1Sc1ccc(S(C)(=O)=O)cc1 [Example 8, [7-chloro-6-fluoro-3-(4-methanesulfonylphenylsulfanyl)-2-methylindolizin-1-yl]acetic acid] | –
1.7 | – | Cc1c(CC(=O)O)c2ccc(C#N)cn2c1Cc1ccc(S(C)(=O)=O)cc1 [Example 10, [6-cyano-3-(4-methanesulfonylbenzyl)-2-methylindolizin-1-yl]acetic acid] | –
2.9 | – | Cc1c(CC(=O)O)c2cc(C#N)ccn2c1Sc1ccc(S(C)(=O)=O)cc1Cl [Example 9, [3-(2-chloro-4-methanesulfonylphenylsulfanyl)-7-cyano-2-methylindolizin-1-yl]acetic acid] | –
23 | – | COc1ccc(Sc2c(C)c(CC(=O)O)c3cc(Cl)c(F)cn23)cc1 [Example 14, [7-chloro-6-fluoro-3-(4-methoxyphenylsulfanyl)-2-methylindolizin-1-yl]acetic acid] | –
7.2 | – | Cc1c(CC(=O)O)c2ccc(C#N)cn2c1Cc1ccc2cc(F)ccc2n1 [Example 12, [6-cyano-3-(6-fluoroquinolin-2-ylmethyl)-2-methylindolizin-1-yl]acetic acid] | –
0.6 | 22 | Cc1c(CC(=O)O)c2ccc(F)cn2c1Sc1ccc(S(=O)(=O)NC2CC2)cc1 [Example 16, [3-(4-cyclopropylsulfamoylphenylsulfanyl)-6-fluoro-2-methylindolizin-1-yl]acetic acid] | –
26 | – | Cc1c(CC(=O)O)c2cc(C#N)ccn2c1Cc1ccc(Cl)cc1 [Example 11, [3-(4-chlorobenzyl)-7-cyano-2-methylindolizin-1-yl]acetic acid] | –
